Laboratory results: the supplement of paper PMC9663587

How the values were obtained:
[1] = tested on: HCC1428; test: area over the GR curve, 72 h; higher = more effect;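 note: Dye Drop or Deep Dye Drop imaging of viable cells in 384-well plates (Hoechst nuclei, LIVE/DEAD dye), nine half-log doses, GR normalized to DMSO controls and time-zero plates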
[2] = tested on: MDAMB157; test: GRmax, 72 h; higher = less effect;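 note: breast cell lines in 384-well plates, nine doses across a 10^4 range, Dye Drop imaging of viable cells vs DMSO and time-zero plates, GR 0 means no net growth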
[3] = tested on: HCC1428; test: GRmax, 72 h; higher = less effect;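 note: breast cell lines in 384-well plates, nine doses across a 10^4 range, Dye Drop imaging of viable cells vs DMSO and time-zero plates, GR 0 means no net growth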
[4] = tested on: HCC1500; test: GRmax, 72 h; higher = less effect;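 note: breast cell lines in 384-well plates, nine doses across a 10^4 range, Dye Drop imaging of viable cells vs DMSO and time-zero plates, GR 0 means no net growth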
[5] = tested on: PDX1206; test: GRmax, 72 h; higher = less effect;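 note: breast cell lines in 384-well plates, nine doses across a 10^4 range, Dye Drop imaging of viable cells vs DMSO and time-zero plates, GR 0 means no net growth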
[6] = tested on: MCF10A (GM); test: GRmax, 72 h; higher = less effect

Row | SMILES | area over the GR curve [1] [GR] | GRmax, 72 h [2] [GR] | GRmax, 72 h [3] [GR] | GRmax, 72 h [4] [GR] | GRmax, 72 h [5] [GR] | GRmax, 72 h [6] [GR]
1 | Cc1nc(Nc2ncc(C(=O)Nc3c(C)cccc3Cl)s2)cc(N2CCN(CCO)CC2)n1 [Dasatinib] (max 10 µM) | 0.256 | 0.0683 | 0.578 | -0.159 | – | –
2 | COc1cccc2c1C(=O)c1c(O)c3c(c(O)c1C2=O)C[C@@](O)(C(=O)CO)C[C@@H]3O[C@H]1C[C@H](N)[C@H](O)[C@H](C)O1 [Doxorubicin] (max 3.162 µM) | 0.895 | -0.777 | -0.74 | -0.713 | – | –
3 | CO[C@H]1C[C@@H]2CC[C@@H](C)[C@@](O)(O2)C(=O)C(=O)N2CCCC[C@H]2C(=O)O[C@H]([C@H](C)C[C@@H]2CC[C@@H](OCCO)[C@H](OC)C2)CC(=O)[C@H](C)/C=C(\C)[C@@H](O)[C@@H](OC)C(=O)[C@H](C)C[C@H](C)/C=C/C=C/C=C/1C [Everolimus] (max 10 µM) | 0.519 | 0.481 | 0.346 | -0.31 | – | –
4 | CCC(=O)Nc1ccc(C(=O)Nc2ccc(Nc3ncc4c(n3)N(C)c3ccc(C)cc3C(=O)N4C)cc2)cc1 [FMF-03-145-1] | – | – | – | – | 0.128 | 0.0984
5 | COc1cc(N2CCN(C)CC2)ccc1Nc1ncc2c(n1)N(C)c1ccccc1C(=O)N2CC(F)(F)F [FMF-03-146-1] | – | – | – | – | 0.966 | 0.977
6 | CN1CC[C@H](c2c(O)cc(O)c3c(=O)cc(-c4ccccc4Cl)oc23)[C@H](O)C1 [Flavopiridol] (max 1 µM) | – | – | – | – | -0.566 | -0.307
7 | CC(C)n1nc(-c2ccc3oc(N)nc3c2)c2c(N)ncnc21 [INK128/MLN0128] (max 3.162 µM) | 0.648 | -0.0331 | -0.0001 | -0.469 | – | –
8 | CC(C)NC[C@@H](C(=O)N1CCN(c2ncnc3c2[C@H](C)C[C@H]3O)CC1)c1ccc(Cl)cc1 [Ipatasertib/GDC0068] (max 10 µM) | -0.0745 | 0.596 | 0.991 | 1.08 | – | –
9 | CN(C)C(=O)c1cc2cnc(Nc3ccc(N4CCNCC4)cn3)nc2n1C1CCCC1 [LEE011/Ribociclib] (max 10 µM) | – | – | – | – | 0.713 | 0.519
10 | CCNC(=O)c1noc(-c2cc(C(C)C)c(O)cc2O)c1-c1ccc(CN2CCOCC2)cc1 [Luminespib/NVP-AUY922] (max 1 µM) | 0.637 | -0.049 | -0.0043 | -0.224 | – | –
11 | CCOc1cc2ncc(C#N)c(Nc3ccc(OCc4ccccn4)c(Cl)c3)c2cc1NC(=O)/C=C/CN(C)C [Neratinib/HKI272] (max 3.162 µM) | 0.101 | 0.117 | -0.0412 | -0.287 | – | –
12 | O=C(c1cc(Cc2n[nH]c(=O)c3ccccc23)ccc1F)N1CCN(C(=O)C2CC2)CC1 [Olaparib/AZD2281] (max 10 µM) | 0.323 | 0.158 | 0.118 | 0.274 | – | –
13 | CC(=O)O[C@H]1C(=O)[C@@]2(C)[C@H]([C@H](OC(=O)c3ccccc3)[C@]3(O)C[C@H](OC(=O)[C@H](O)[C@@H](NC(=O)c4ccccc4)c4ccccc4)C(C)=C1C3(C)C)[C@]1(OC(C)=O)CO[C@@H]1C[C@@H]2O [Paclitaxel] (max 1 µM) | 0.507 | -0.67 | 0.0645 | -0.0589 | – | –
14 | CS(=O)(=O)N1CCN(Cc2cc3nc(-c4cccc5[nH]ncc45)nc(N4CCOCC4)c3s2)CC1 [Pictilisib/GDC0941] (max 10 µM) | 0.117 | 0.187 | 0.192 | -0.132 | – | –
15 | O=C1NC(=NCc2cccs2)SC1=Cc1ccc2ncccc2c1 [R0-3306] (max 10 µM) | – | – | – | – | 0.0387 | -0.0351
16 | CNCc1ccc(-c2[nH]c3cc(F)cc4c3c2CCNC4=O)cc1 [Rucaparib] (max 10 µM) | – | – | – | – | 0.586 | 0.882
17 | CC1(N)CCN(c2cnc(-c3cccc(Cl)c3Cl)c(N)n2)CC1 [SHP099] (max 10 µM) | – | – | – | – | 0.7 | 0.738
18 | CN1CCN(CCOc2cc(OC3CCOCC3)c3c(Nc4c(Cl)ccc5c4OCO5)ncnc3c2)CC1 [Saracatinib/AZD0530] (max 10 µM) | 0.0609 | 0.355 | 0.669 | -0.197 | – | –
19 | Cc1cc(C(C)Nc2ccccc2)c2nc(N3CCOCC3)cc(=O)n2c1 (stereo not drawn) [TGX221] (max 10 µM) | 0.0058 | 0.824 | 0.769 | 0.503 | – | –
20 | CN(C)C/C=C/C(=O)Nc1ccc(C(=O)Nc2cccc(Nc3ncc(Cl)c(-c4c[nH]c5ccccc45)n3)c2)cc1 [THZ1] (max 1 µM) | – | – | – | – | -0.522 | -0.267
21 | Cc1nc(-c2cn3c(n2)-c2ccc(-c4cnn(C(C)(C)C(N)=O)c4)cc2OCC3)n(C(C)C)n1 [Taselisib/GDC0032] (max 10 µM) | 0.139 | 0.211 | 0.173 | -0.233 | – | –
22 | O=C1NC(=O)[C@@H](c2cn3c4c(cccc24)CCC3)[C@@H]1c1c[nH]c2ccccc12 [Tivantinib/ARQ197] (max 10 µM) | 0.345 | -0.482 | 0.0341 | -0.33 | – | –
23 | CC[C@@]1(O)C(=O)OCc2c1cc1n(c2=O)Cc2cc3c(CN(C)C)c(O)ccc3nc2-1 [Topotecan] (max 10 µM) | 0.835 | -0.833 | -0.376 | -0.801 | – | –
24 | Nc1ccc(-c2ccc3ncc4ccc(=O)n(-c5cccc(C(F)(F)F)c5)c4c3c2)cn1 [Torin2] (max 1 µM) | 0.439 | -0.216 | -0.0145 | -0.497 | – | –
25 | CC[C@@H]1C(=O)N(C)c2cnc(Nc3ccc(C(=O)N[C@H]4CC[C@H](N5CCN(CC6CC6)CC5)CC4)cc3OC)nc2N1C(C)C [Volasertib/BI6727] (max 1 µM) | 0.395 | -0.664 | -0.0388 | 0.286 | – | –
26 | O=C(CCCCCCC(=O)Nc1ccccc1)NO [Vorinostat] (max 10 µM) | 0.339 | -0.413 | -0.479 | -0.596 | – | –
